Earlier results on two molecules are cited in patent US20110091544A1 (priority 2009, published 2011).

One series has as its system patients. Particulars: 7.5 mg; at 30 and 60 min after administration.
The subject of series [1] is children scheduled for day surgery.
A further series relates to acute seizures. Particulars: nasal.
The conditions of series [2]: 0.2 mg/kg; 30 min after premedication; children.
Series [3] has as its system pediatric patients undergoing outpatient surgery. The settings on record: in vivo.
The next series relates to dental outpatients. Particulars: in vivo.
Series [4] deals with 61-70 year old patients scheduled for ophthalmic surgery. Particulars: 200 mcg sublingual.
Experiment in series [5]: not given
This is another data set of the same source.

For series [6] the following is noted: 250 mcg or 375 mcg sublingual.
A further series deals with healthy children. The settings on record: oral 0.025 mg/kg, children aged 6 to 9 years.
Experiment in series [7]: not given
The source holds these as a separate data set.

Series [8] has as its system healthy young subjects and healthy elderly subjects. The settings on record: 125 mcg and 250 mcg.

Like-named read-outs stand apart in the source and are kept apart here.

`Cc1ncc2n1-c1ccc(Cl)cc1C(c1ccccc1F)=NC2` [midazolam, 8-chloro-6-(2-fluorophenyl)-1-methyl-4H-imidazo[1,5-a][1,4]benzodiazepine]: the “sedation scores, sublingual group versus oral group” value with patients is “higher”. Besides, the “children showing satisfactory sedation at 15 min after administration” value is 28% in series [1] (0.25 mg/kg sublingual, P=0.02); 52% in [1] (0.5 mg/kg sublingual, P<0.001); 64% in series [1] (0.75 mg/kg sublingual, P<0.001). Where the note is “15 mg oral dose”, the maximum plasma concentrations was 70 to 120 ng/mL. The “time to maximum plasma concentrations” value (15 mg oral dose) was “within one hour”. In addition, the “prolongation of plasma half-life” value (adults greater than 60 years) was “up to 3 times”. Besides, the plasma half-life (orally administered) is 1.5 to 5 h. Also, the oral bioavailability entry (with a broad range) is listed as “approximately 36%”. In the series on acute seizures, the “treatment of acute seizures” value is listed as “effective”. In series [2], the “midazolam level, sublingual group versus nasal group” value is “statistically significantly higher”. In addition, the “children who had not previously cried who cried on administration” value in series [3] is on record as 71%. Besides, the “patients who experienced nasal irritation” value in [3] is 20 patients.
Take `Cc1nnc2n1-c1ccc(Cl)cc1C(c1ccccc1Cl)=NC2` [triazolam, 8-chloro-6-(o-chlorophenyl)-1-methyl-4H-s-triazolo-[4,3-alpha][1,4]benzodiazepine]: the higher bioavailability with dental outpatients is given as 28%. Also, the “anxiety and pain at 15 minutes intraoperatively” value in the series on dental outpatients (po) was “significantly less anxiety and pain”. Besides, in [4], the “depth of sedation compared with 10 mg oral diazepam” value is “deeper sedation” and the “time at which sedation developed after administration” value is 60 to 90 min. The “increase in Cmax” value in [5] (elderly versus young adults) is given as 50%. For the same molecule, in series [5] (no change elderly versus young adults), the Tmax was 0.9 h. Moreover, the plasma half-life in [5] (orally administered) was 1.5 to 5.5 h. Besides, the “higher peak plasma level” value in series [5] (sublingual compared with oral administration) is 20%. In series [6] (children), the “Cmax, range” value was 4.0 to 8.2 ng/mL; the “Tmax, range” value is 0.5 to 2 h; the “elimination half-life, range” value was 0.85 to 2.33 h. The Cmax in series [6] (children 64-98 months old, mean+/−SD) was 4.9 ± 2.0 ng/mL. Also, in [6] (children, mean+/−SD), the Tmax was 1.25 ± 0.533 h and the elimination half-life is 1.52 ± 0.533 h. Further, the “time to peak plasma concentration” value with healthy children was 74 ± 25 min. Also, in the series on healthy children (mean+/−SD), the peak plasma concentration was 8.5 ± 3.0 ng/mL. In [7] (500 mcg oral), the elimination half-life is 3.7 h, the “mean total area under the curve” value is 22.6 ng·h/mL, the peak plasma concentration was 3.9 ng/mL and the “time of peak concentration” value was 1.25 h. In addition, in series [7] (500 mcg sublingual), the elimination half-life is 4.1 h, the “mean total area under the curve” value was 28.9 ng·h/mL, the peak plasma concentration is listed as 4.7 ng/mL and the “time of peak concentration” value is 1.22 h. Moreover, the “bioavailability greater than oral” value in [7] (500 mcg sublingual versus oral, average) is given as 28%. Also, the “sedation and psychomotor performance, healthy elderly versus young persons at the same dose” value in [8] is “greater degree of sedation and greater impairment of psychomotor performance”.

What is called Tmax is the time from dosing to the highest level. For orientation: Cmax means the highest concentration seen after dosing.
